Test results taken from patent US20200071361A1, “ENGINEERED ANTIMICROBIAL AMPHIPHILIC PEPTIDES AND METHODS OF USE” (priority 2017, published 2020).
Converted amounts (≈) assume the structure as drawn. “And” between values parts separate entries of the source, which are not always exact repeats. Equal values may be shown once. Read-outs that look alike come from different tables or passages of the source. No end group written: not given here.

Key:
[1] = system: Acinetobacter spp. isolates (n = 104); assay: Broth microdilution MIC, clinical isolate panel; type: cell-based; settings: Acinetobacter spp. (n = 104)
Procedure: (§1) Comparator antibiotics were supplied by Micromyx, and stock solutions were prepared on the first day of testing using solvents recommended by CLSI (1). Stock solutions of all compounds were made at 40× the final testing concentration and stored at −80° C. prior to testing. Information regarding compound source, catalog and lot number, testing concentrations and drug diluent for the comparators and test agent are detailed below in Table 3.
(§2) The test organisms evaluated in this study consisted of clinical isolates from the Micromyx Repository and reference isolates from the American Type Culture Collection (ATCC; Manassas, Va.). The clinical isolates were obtained from USA hospitals. Upon initial receipt at Micromyx, the organisms were sub-cultured onto an appropriate agar medium. Following incubation, colonies were harvested from these plates and cell suspensions prepared and frozen at −80° C. with a cryoprotectant. Prior to testing, the isolates were streaked from frozen vials onto Trypticase Soy Agar with 5% sheep blood (Becton Dickenson [BD]; Sparks, Md.; Lot Nos. 7173618, 7166759, 7208688, 72144895, 7228505 and Remel Lenexa, Kans. Lot No. 212574). Plates were incubated at 35° C. overnight.
(§3) Mueller Hinton II broth (MHB II; BD; Lot Nos. 6258541 and 7143896) was used for MIC testing of aerobic organisms.
(§4) MIC values were determined using a broth microdilution procedure described by CLSI (1, 3). Automated liquid handlers (Multidrop 384, Labsystems, Helsinki, Finland; Biomek 2000 and Biomek FX, Beckman Coulter, Fullerton Calif.) were used to conduct serial dilutions and liquid transfers.
(§5) To prepare the drug mother plates, which would provide the serial drug dilutions for the replicate daughter plates, the wells of columns 2-12 of standard 96-well microdilution plates (Costar 3795) were filled with 150 μl of the designated diluent for each row of drug. The test articles and comparator compounds (300 μl at 40× the highest concentration to be tested) were dispensed into the appropriate wells in column 1. The Biomek 2000 was then used to make 2-fold serial dilutions in the mother plates from column 1 through column 11. The wells of Column 12 contained no drug and served as the organism growth control wells for the assay.
(§6) The daughter plates were loaded with 185 μL per well of MHB II using the Multidrop 384. The daughter plates were completed on the Biomek FX instrument which transferred 5 µL of drug solution from each well of a mother plate to the corresponding well of each daughter plate in a single step. A standardized inoculum of each test organism was prepared per CLSI methods (1). The inoculum for each organism was dispensed into sterile reservoirs divided by length (Beckman Coulter), and the Biomek 2000 was used to inoculate the plates. Daughter plates were placed on the Biomek 2000 work surface in reverse orientation so that inoculation took place from low to high drug concentration.
(§7) Plates were stacked 3-4 high, covered with a lid on the top plate, placed in plastic bags, and incubated at 35° C. for 16 to 20 hrs. Following incubation, the microplates were removed from the incubator and viewed from the bottom using a plate viewer. […] The MIC was read and recorded as the lowest concentration of drug that inhibited visible growth of the organism.
(§8) Clinical breakpoints to determine percent resistance within a given organism group were obtained from CLSI (3), with the exception of colistin for K. pneumoniae, Enterobacter spp., and E. coli, which are only available from EUCAST.

[2] = system: Escherichia coli isolates (n = 101); assay: Broth microdilution MIC, clinical isolate panel; type: cell-based; settings: Escherichia coli (n = 101)
Procedure: as §1, §2, §3, §4, §5, §6, §7, §8

[3] = system: Klebsiella pneumoniae isolates (n = 101); assay: Broth microdilution MIC, clinical isolate panel; type: cell-based; settings: Klebsiella pneumoniae (n = 101)
Procedure: as §1, §2, §3, §4, §5, §6, §7, §8

[4] = system: Pseudomonas aeruginosa isolates (n = 109); assay: Broth microdilution MIC, clinical isolate panel; type: cell-based; settings: Pseudomonas aeruginosa
Procedure: as §1, §2, §3, §4, §5, §6, §7, §8

[5] = system: Staphylococcus aureus isolates (n = 104); assay: Broth microdilution MIC, clinical isolate panel; type: cell-based; settings: Staphylococcus aureus (n = 104), all methicillin-resistant
Procedure: as §1, §2, §3, §4, §5, §6, §7, §8

[6] = for AUC(0-inf): AUCinf; for clearance: CL; for half-life: T 1/2, macaque; for Vd: Vss
Procedure: Animals will be obtained from the Test Facility's colony of adult male cynomolgous monkeys (Macaca fascicularis) of Chinese origin. Animals will be weighed prior to dosing.
Animals will be fasted a minimum of 2 hours prior to procedures requiring the administration of ketamine anesthesia. The diet will also be supplemented with other nutrients by feeding items such as raisins or fresh fruits that are presented to the animal as part of an environmental enrichment program. Offering items known to cause diarrhea will be avoided.
Intravenous administration will be via 30 minute infusion into a temporary percutaneous catheter placed into a saphenous vein. Prior to and following dose administration, the catheter will be flushed with 0.5 mL saline prior to removal. All dosing syringes will be weighed prior to and following dosing.
All animals will be observed at dosing and each scheduled collection. All abnormalities will be recorded.
Serial blood samples will be collected via femoral vein (cephalic or saphenous, as necessary). Approximately 1 mL blood samples will be collected into K2EDTA tubes.
Blood samples will be collected into K2EDTA tubes and stored on wet ice. Whole blood will be processed to plasma by centrifugation (2400-2700 rpm at 5° C.) within 30 minutes of collection. Plasma samples will be split into 2 equal aliquots and stored at −80° C. until analysis.
Administered doses will be determined gravimetrically.
Prior to extraction, a known concentration of a mass-adjusted internal standard (IS) will be added to assess recovery and allow for quantitation. Purified samples will be further subjected to high-performance liquid chromatography (HPLC) using C18 300 or 130 angstrom columns prior to MS/MS analysis. Multiple charge states will be observed by MS, so MS/MS will be employed to enable multiple reaction monitoring (MRM) analyses to determine the most MRM transitions with the highest signal-to-noise gain. Compound plasma concentrations will be determined by comparing to and compensating with co-purified IS peak intensity and validated calibrated standard curves.
Toxicokinetic parameters will be calculated using non-compartmental methods as implemented in the Phoenix® WinNonlin® ver. 6.3 comprehensive TK/PK analysis software program (Pharsight Corporation; Mountain View, Calif.) using an IV infusion model. Toxicokinetic analysis will be conducted using a 30-minute intravenous infusion time. Therefore, 30 minutes will be added to each sample time point postdose to obtain nominal time for TK analysis. Nominal times and dosage levels will be used for all calculations. Values below the lower limit of quantitation (BLQ) will be assigned a value of zero for the toxicokinetic calculations. Microsoft® Excel® 2013 will be used for receipt of bioanalytical data, minor formatting, including setting BLQ values to “0”, transfer into WinNonlin® for TK analysis, and calculation of the mean when an approximated value will be excluded. All plasma concentration data from all animals will be included in the analysis. Graphical presentations will be performed using Prism® for Macintosh ver. 7.0a (GraphPad, Inc.; La Jolla, Calif.).

[7] = mouse, in vivo, iv; for Vd: male CD-1 mice
Source text: Male CD-1 mice will be received from an approved vendor and allowed to acclimate for a minimum of two days. Fasting will be not required.
All dosing syringes will be weighed prior to and following dosing. IV doses will be administered as a slow bolus (over ˜30 seconds) via direct venipuncture of a tail vein. All animals will be observed at dosing and each scheduled collection. All abnormalities will be recorded.
Terminal blood samples will be collected via cardiac puncture following inhalation anesthesia.
Sample Processing and Storage: Blood samples will be collected into K2EDTA tubes and stored on wet ice. Whole blood will be processed to plasma by centrifugation (3500 rpm at 5° C.) within 30 minutes of collection. Plasma samples will be split into 2 equal aliquots and each transferred into 96 well plates (matrix tubes) and stored at −80° C. until analysis. Administered doses will be determined gravimetrically.
Pharmacokinetic parameters will be calculated using non-compartmental methods as implemented in the Phoenix® WinNonlin® ver. 6.3 comprehensive TK/PK analysis software program (Pharsight Corporation; Mountain View, Calif.) using an IV infusion model. Pharmacokinetic analysis will be conducted using a 30-minute intravenous infusion time. Therefore, 30 minutes will be added to each sample time point postdose to obtain nominal time for TK analysis. Nominal times and dosage levels will be used for all calculations. Values below the lower limit of quantitation (BLQ) will be assigned a value of zero for the pharmacokinetic calculations. Microsoft® Excel® 2013 will be used for receipt of bioanalytical data, minor formatting, including setting BLQ values to “0”, transfer into WinNonlin® for PK analysis, and calculation of the mean when an approximated value will be excluded. All plasma concentration data from all animals will be included in the analysis. Graphical presentations will be performed using Microsoft® Excel® 2013.

[8] = cynomolgus monkey, in vivo, iv, 1 mg/kg, macaque, 1 mg/kg IV infusion, Mean
[9] = cynomolgus monkey, in vivo, iv, 3 mg/kg, macaque, 3 mg/kg IV infusion, Mean
[10] = cynomolgus monkey, in vivo, iv, 10 mg/kg, macaque, 10 mg/kg IV infusion, Mean

## CC(C)(O/N=C(\C(=O)N[C@@H]1C(=O)N2C(C(=O)[O-])=C(C[n+]3ccccc3)CS[C@H]12)c1csc(N)n1)C(=O)O [Ceftazidime]
[1]
  MIC50: > 32 µg/mL
[2]
  MIC50: 0.5 µg/mL (≈ 0.915 µM)
[2]; read-out: Mode (MIC)
  MIC: 0.25 µg/mL (≈ 0.457 µM)
[3]
  % R (percent of isolates resistant, clinical breakpoints): Over 80%
  MIC50: > 32 µg/mL
[4]
  MIC50: 4 µg/mL (≈ 7.32 µM)
[4]; read-out: Mode (MIC)
  MIC: 2 µg/mL (≈ 3.66 µM)

## CCC[C@@H]1C[C@@H](C(=O)N[C@@H]([C@H]2O[C@H](SC)[C@H](O)[C@@H](O)[C@H]2O)[C@H](C)Cl)N(C)C1 [Clindamycin]
[5]
  MIC50: 0.12 µg/mL (≈ 0.282 µM)

## C[C@H]1c2cccc(O)c2C(=O)C2=C(O)[C@]3(O)C(=O)C(C(N)=O)=C(O)[C@@H](N(C)C)[C@@H]3[C@@H](O)[C@@H]21 [Doxycycline]
[5]
  % R (percent of isolates resistant, clinical breakpoints): 0%
  MIC50: 0.12 µg/mL (≈ 0.27 µM)
  MIC90: 1 µg/mL (≈ 2.25 µM)

## RRWVRRVRRVWRRVVRVVRRWVRR-NH2 [SEQ ID NO: 1]
[6]; cynomolgus monkey, in vivo, iv, 1 mg/kg, AUC0-24hr, macaque, 1 mg/kg IV infusion, Mean
  AUC(0-t): 1090 ng·h/mL
[6]; [8]
  AUC(0-inf): 1170 ng·h/mL
  clearance: 18.5 mL/min/kg
  Cmax: 1710 ng/mL
  Vd: 1.38 L/kg
[6]; cynomolgus monkey, in vivo, iv, 1 mg/kg, AUClast, macaque, 1 mg/kg IV infusion, Mean
  AUC(0-t): 983 ng·h/mL
[6]; cynomolgus monkey, in vivo, iv, 1 mg/kg, 1 mg/kg IV infusion, Mean
  half-life: 2 h
[6]; cynomolgus monkey, in vivo, iv, 1 mg/kg, macaque, 1 mg/kg IV infusion, individual monkey
  Vd: 1.53 L/kg
[6]; cynomolgus monkey, in vivo, iv, 3 mg/kg, AUC0-24hr, macaque, 3 mg/kg IV infusion, Mean
  AUC(0-t): 7580 ng·h/mL
[6]; [9]
  AUC(0-inf): 7710 ng·h/mL
  clearance: 7.18 mL/min/kg
  Cmax: 10300 ng/mL
  Vd: 1.29 L/kg
[6]; cynomolgus monkey, in vivo, iv, 3 mg/kg, AUClast, macaque, 3 mg/kg IV infusion, Mean
  AUC(0-t): 7580 ng·h/mL
[6]; cynomolgus monkey, in vivo, iv, 3 mg/kg, 3 mg/kg IV infusion, Mean
  half-life: 5.2 h
[6]; cynomolgus monkey, in vivo, iv, 3 mg/kg, 3 mg/kg IV infusion, individual monkey
  half-life: 4.4 h
[6]; cynomolgus monkey, in vivo, iv, 3 mg/kg, Tmax, macaque, 3 mg/kg IV infusion, Mean
  Tmax: 6.6 min
[6]; cynomolgus monkey, in vivo, iv, 3 mg/kg, macaque, 3 mg/kg IV infusion, individual monkey
  Vd: 1.58 L/kg
[6]; cynomolgus monkey, in vivo, iv, 10 mg/kg, AUC0-24hr, macaque, 10 mg/kg IV infusion, Mean
  AUC(0-t): 50300 ng·h/mL
[6]; [10]
  AUC(0-inf): 50800 ng·h/mL
  clearance: 6.32 mL/min/kg
  Cmax: 38200 ng/mL
  Vd: 1.26 L/kg
[6]; cynomolgus monkey, in vivo, iv, 10 mg/kg, AUClast, macaque, 10 mg/kg IV infusion, Mean
  AUC(0-t): 50300 ng·h/mL
[6]; cynomolgus monkey, in vivo, iv, 10 mg/kg, 10 mg/kg IV infusion, Mean
  half-life: 4.6 h
[6]; cynomolgus monkey, in vivo, iv, 10 mg/kg, 10 mg/kg IV infusion, individual monkey
  half-life: 4.3 h
[6]; macaque, 3 mg/kg IV infusion, individual monkey, 3 mg/kg
  T 1/2: 6.3 h and 5 h
[6]; macaque, 10 mg/kg IV infusion, individual monkey, 10 mg/kg
  T 1/2: 4.9 h and 4.6 h
[7]; 3 mg/kg
  AUC(0-inf): < 3500 ng·h/mL
  C0: 26000 ng/mL
  Cmax: 16600 ng/mL
  MRT last: ~0.5 h
  Tmax: 0.303 h
  clearance: ~5 mL/min/kg
  half-life: ~8 h
[7]; 3 mg/kg, Vss, 3 mg/kg IV
  Vd: ~0.2 L/kg
[7]; 3 mg/kg, Vz, 3 mg/kg IV
  Vd: ~3 L/kg
[7]; 15 mg/kg
  AUC(0-inf): 53800 ng·h/mL
  AUC(0-t): 53600 ng·h/mL
  C0: 192000 ng/mL
  Cmax: 163000 ng/mL
  MRT last: 0.579 h
  clearance: 4.65 mL/min/kg
  half-life: 7.45 h
[7]; 15 mg/kg, Vss, 15 mg/kg IV
  Vd: 0.208 L/kg
[7]; 15 mg/kg, Vz, 15 mg/kg IV
  Vd: 3 L/kg
